Source: publication PMC3116320 (Indian Journal of Pharmaceutical Sciences, 2010)
pIC50: −log10 of the molar value.

How the values were obtained:
Assay in all cases: Sulforhodamine-B
Format in all cases: cell-based
[1] = test system: MCF7 breast cancer cell line; settings: Homo sapiens, MCF7, read-out: IC50 anticancer evaluation MCF
[2] = test system: HOP62 lung cancer cell line; settings: Homo sapiens, HOP-62, read-out: IC50 anticancer evaluation Hop62
[3] = test system: Colo205 colon cancer cell line; settings: Homo sapiens, COLO 205, read-out: IC50 anticancer evaluation Colo205
[4] = test system: HT29 colon cancer cell line; settings: Homo sapiens, HT-29, read-out: IC50 anticancer evaluation HT29
[5] = test system: MIA-PA-CA-2 pancreatic cancer cell line; settings: Homo sapiens, MIA PaCa-2, read-out: IC50 anticancer evaluation Miapaca-2

- pIC50 [1]: > 4.82
- pIC50 [2]: > 4.82
- pIC50 [3]: > 4.82
- pIC50 [4]: > 4.82
- pIC50 [5]: > 4.82
SMILES: COc1cccc2c1C(=O)c1c(O)c3c(c(O)c1C2=O)C[C@@](O)(C(=O)CO)C[C@@H]3O[C@H]1C[C@H](N)[C@H](O)[C@H](C)O1 [Adriamycin]
